Tests used:
[1] = test system: AMP activated protein kinase (AMPK); experiment: AMPK phosphorylation by Western blot in C2C12 myotubes; type: cell-based, Mouse; settings: whatever the dose
Procedure: (§1) Mouse myoblasts of the C2C12 cell line (ATCC) were seeded at a plating density of 7000 cells/cm2 in 6-well plates. They were grown in DMEM high glucose (4.5g/l) supplemented with gentamycin (50 µg/mL), amphotericin (50 µg/mL), and fetal calf serum (10%). Terminal differentiation was induced at cell confluence by lowering the medium serum concentration (0.5%).
(§2) When indicated, FuFA-F2 was added to the culture medium at the indicated concentration. For the differentiation studies, FuFA-F2 was added at the confluence at the same time as the change in media condition. Three doses of FuFA-F2 were studied at a final concentration of 1, 10, or 50 µM. Human insulin was used at a concentration of 100 nM.
(§3) Protein levels were assessed by Western blotting. Total proteins were measured using the Bio-Rad protein assay (Hercules, CA, USA) according to the manufacturer's instructions. […]
(§4) AMP activated protein kinase (AMPK) is a crucial cellular energy sensor protein and is activated when intracellular ATP level decreases to regulate autophagy initiation (Hardie et al., 2012, Nat Rev Mol Cell Bio, Vol. 13 (4) : 251-262). […] The autophagy-related signaling was further evaluated by measuring the MTORC1 mediated phosphorylation […] at Ser757 which disrupts the interaction between ULK1 and AMPK. […] Therefore, the autophagic flux was assessed by measuring the conversion of LC3-I to LC3-II, through lipidation.

LC3-II/LC3-I = experiment: Autophagic flux, conversion of LC3-I to LC3-II by Western blot in C2C12 myotubes; type: cell-based, Mouse; settings: whatever the dose
Procedure: as §1, §2, §3, §4

C57BL/6J mice = experiment: High Fat and High Sucrose (HFHS) diet with FuFA-F2, quadriceps muscle mass; type: in vivo; settings: 12 weeks
Procedure: Forty six-weeks old male C57BL/6J mice (Charles River, L'Arbresle, France), weighing about 21 g, were housed (5 per cage) under conditions of constant temperature (20-22°C), humidity (45-50%) and a standard dark cycle (20.00-08.00 hours). The mice were randomized, according to their initial weight, into four groups of ten animals and fed for 12 weeks with one of the four following semi-purified diets: 1) control diet, 2) HFHS diet, 3) HFHS + FuFA-F2 (0.048%, 40mg/kg body weight/day), 4) HFHS + FuFA-F2 (0.127%, 105mg/kg body weight/day). In this example, "FuFA-F2" is the triacylglycerol form of FuFA-F2.
The control diet contains 5% lipids as a mixture of rapeseed oil, high oleic sunflower oil, sunflower oil and linseed oil (oil mixture of Carrefour), the high fat high sucrose (HFHS) diets contain 25% lipids (5% of a mixture of rapeseed oil, high oleic sunflower oil, sunflower oil and linseed oil and 20% of lard) and 30% sucrose. The detailed composition of the diets is given in Table 1 at the end of the present description. […]
Throughout the study, mice were given free access to food and tap water. Mice body weight was followed weekly and food consumption was determined every two days (during the week) or three days (the week-end). […]
Results were expressed as means ± SD. […]

## CCCCCc1cc(C)c(CCCCCCCCC(=O)O)o1 [FuFA-F2]
[1]
  Activation level of AMPK, phosphorylation at Thr172: significantly decreased
LC3-II/LC3-I
  ratio of LC3-II/LC3-I: decreased
C57BL/6J mice; HFHS diet + FuFA-F2 (triacylglycerol form) at any dose (40 and 105mg/kg body weight/day), compared to HFHS alone
  quadriceps muscle mass: increased
C57BL/6J mice; highest dose 105mg/kg body weight/day by comparison to lowest dose 40mg/kg body weight/day, HFHS diet, triacylglycerol form
  quadriceps muscle mass: significantly increased
